Assay results taken from PubChem BioAssay (NCI).
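Protocol summary: plate cells (96-well), add compound at 5 concentrations, incubate 48 h, interpolate endpoints linearly. Abbreviation: GI50, concentration required for 50% inhibition of growth. TGI: concentration producing complete growth inhibition.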

Key:
Assay in all cases: DTP human tumour cell line panel, 48 h
786-0 renal = system: 786-0 renal
A498 renal = system: A498 renal
A549 NSCLC = system: A549 NSCLC
ACHN renal = system: ACHN renal
BT-549 breast = system: BT-549 breast
CAKI-1 renal = system: CAKI-1 renal
CCRF-CEM leukemia = system: CCRF-CEM leukemia
COLO 205 colon = system: COLO 205 colon
DU-145 prostate = system: DU-145 prostate
EKVX NSCLC = system: EKVX NSCLC
HCC-2998 colon = system: HCC-2998 colon
HCT-116 colon = system: HCT-116 colon
HCT-15 colon = system: HCT-15 colon
HL-60(TB) leukemia = system: HL-60(TB) leukemia
HOP-62 NSCLC = system: HOP-62 NSCLC
HOP-92 NSCLC = system: HOP-92 NSCLC
HS 578T breast = system: HS 578T breast
HT29 colon = system: HT29 colon
IGROV1 ovarian = system: IGROV1 ovarian
KM12 colon = system: KM12 colon
LOX IMVI melanoma = system: LOX IMVI melanoma
M14 melanoma = system: M14 melanoma
MALME-3M melanoma = system: MALME-3M melanoma
MCF7 breast = system: MCF7 breast
MDA-MB-231 breast = system: MDA-MB-231 breast
MDA-MB-435 = system: MDA-MB-435
MDA-MB-468 breast = system: MDA-MB-468 breast
MOLT-4 leukemia = system: MOLT-4 leukemia
NCI-H226 lung = system: NCI-H226 lung
NCI-H23 lung = system: NCI-H23 lung
NCI-H460 lung = system: NCI-H460 lung
NCI-H522 lung = system: NCI-H522 lung
NCI/ADR-RES ovarian = system: NCI/ADR-RES ovarian
OVCAR-3 ovarian = system: OVCAR-3 ovarian
OVCAR-4 ovarian = system: OVCAR-4 ovarian
OVCAR-5 ovarian = system: OVCAR-5 ovarian
OVCAR-8 ovarian = system: OVCAR-8 ovarian
PC-3 prostate = system: PC-3 prostate
RPMI-8226 leukemia = system: RPMI-8226 leukemia
RXF 393 renal = system: RXF 393 renal
SF-268 CNS = system: SF-268 CNS
SF-295 CNS = system: SF-295 CNS
SF-539 CNS = system: SF-539 CNS
SK-MEL-2 melanoma = system: SK-MEL-2 melanoma
SK-MEL-28 melanoma = system: SK-MEL-28 melanoma
SK-MEL-5 melanoma = system: SK-MEL-5 melanoma
SK-OV-3 ovarian = system: SK-OV-3 ovarian
SN12C renal = system: SN12C renal
SNB-19 CNS = system: SNB-19 CNS
SNB-75 CNS = system: SNB-75 CNS
SR leukemia = system: SR leukemia
SW-620 colon = system: SW-620 colon
T-47D breast = system: T-47D breast
TK-10 renal = system: TK-10 renal
U251 CNS = system: U251 CNS
UACC-257 melanoma = system: UACC-257 melanoma
UACC-62 melanoma = system: UACC-62 melanoma
UO-31 renal = system: UO-31 renal

COc1cc2oc(-c3cccc(C(=O)Nc4ccc(Cl)cc4)c3)cc(=O)c2c(OCCNC(=O)[C@@H](N)CO)c1OC
GI50 (786-0 renal): 13.2 µM
TGI (786-0 renal): 32.4 µM
GI50 (A498 renal): 32.8 µM
TGI (A498 renal): 65.7 µM
GI50 (A549 NSCLC): > 100 µM
TGI (A549 NSCLC): > 100 µM
GI50 (ACHN renal): 30.6 µM
TGI (ACHN renal): > 100 µM
GI50 (BT-549 breast): 10.3 µM
TGI (BT-549 breast): 25.4 µM
GI50 (CAKI-1 renal): 65.4 µM
TGI (CAKI-1 renal): > 100 µM
GI50 (CCRF-CEM leukemia): 2.39 µM
TGI (CCRF-CEM leukemia): 5.83 µM
GI50 (COLO 205 colon): 6 µM
TGI (COLO 205 colon): 20.2 µM
GI50 (DU-145 prostate): 16 µM
TGI (DU-145 prostate): 35.4 µM
GI50 (EKVX NSCLC): 16.8 µM
TGI (EKVX NSCLC): > 100 µM
GI50 (HCC-2998 colon): 5.83 µM
TGI (HCC-2998 colon): 19.3 µM
GI50 (HCT-116 colon): 4.72 µM
TGI (HCT-116 colon): 19.5 µM
GI50 (HCT-15 colon): 19.6 µM
TGI (HCT-15 colon): > 100 µM
GI50 (HL-60(TB) leukemia): 8.2 µM
TGI (HL-60(TB) leukemia): 30.4 µM
GI50 (HOP-62 NSCLC): 7.74 µM
TGI (HOP-62 NSCLC): 29 µM
GI50 (HOP-92 NSCLC): 2.65 µM
TGI (HOP-92 NSCLC): 12.7 µM
GI50 (HS 578T breast): 4.32 µM
TGI (HS 578T breast): 18.2 µM
GI50 (HT29 colon): 6.44 µM
TGI (HT29 colon): 26.6 µM
GI50 (IGROV1 ovarian): 7.15 µM
TGI (IGROV1 ovarian): 23.9 µM
GI50 (KM12 colon): 15.3 µM
TGI (KM12 colon): 29.1 µM
GI50 (LOX IMVI melanoma): 1.79 µM
TGI (LOX IMVI melanoma): 3.5 µM
GI50 (M14 melanoma): 1.84 µM
TGI (M14 melanoma): 3.72 µM
GI50 (MALME-3M melanoma): 2.47 µM
TGI (MALME-3M melanoma): 6.92 µM
GI50 (MCF7 breast): 3.53 µM
TGI (MCF7 breast): 13.3 µM
GI50 (MDA-MB-231 breast): 2.87 µM
TGI (MDA-MB-231 breast): 9.37 µM
GI50 (MDA-MB-435): 4.59 µM
TGI (MDA-MB-435): 17.8 µM
GI50 (MDA-MB-468 breast): 1.51 µM
TGI (MDA-MB-468 breast): 3.63 µM
GI50 (MOLT-4 leukemia): 2.4 µM
TGI (MOLT-4 leukemia): 5.18 µM
GI50 (NCI-H226 lung): 12.8 µM
TGI (NCI-H226 lung): 53 µM
GI50 (NCI-H23 lung): 12.6 µM
TGI (NCI-H23 lung): 30.2 µM
GI50 (NCI-H460 lung): 8.48 µM
TGI (NCI-H460 lung): 22.1 µM
GI50 (NCI-H522 lung): 3.61 µM
TGI (NCI-H522 lung): 18 µM
GI50 (NCI/ADR-RES ovarian): > 100 µM
TGI (NCI/ADR-RES ovarian): > 100 µM
GI50 (OVCAR-3 ovarian): 13.4 µM
TGI (OVCAR-3 ovarian): 26.9 µM
GI50 (OVCAR-4 ovarian): 12.8 µM
TGI (OVCAR-4 ovarian): 30.3 µM
GI50 (OVCAR-5 ovarian): 9.96 µM
TGI (OVCAR-5 ovarian): 44.3 µM
GI50 (OVCAR-8 ovarian): 10.1 µM
TGI (OVCAR-8 ovarian): 21.7 µM
GI50 (PC-3 prostate): 10.8 µM
TGI (PC-3 prostate): 35.6 µM
GI50 (RPMI-8226 leukemia): 3.36 µM
TGI (RPMI-8226 leukemia): > 100 µM
GI50 (RXF 393 renal): 8.76 µM
TGI (RXF 393 renal): 67.6 µM
GI50 (SF-268 CNS): 13.9 µM
TGI (SF-268 CNS): 32.4 µM
GI50 (SF-295 CNS): 6.84 µM
TGI (SF-295 CNS): 25.1 µM
GI50 (SF-539 CNS): 11.3 µM
TGI (SF-539 CNS): 24.5 µM
GI50 (SK-MEL-2 melanoma): 2.1 µM
TGI (SK-MEL-2 melanoma): 5.03 µM
GI50 (SK-MEL-28 melanoma): 1.77 µM
TGI (SK-MEL-28 melanoma): 3.46 µM
GI50 (SK-MEL-5 melanoma): 9.11 µM
TGI (SK-MEL-5 melanoma): 26.6 µM
GI50 (SK-OV-3 ovarian): 14.8 µM
TGI (SK-OV-3 ovarian): 38.2 µM
GI50 (SN12C renal): 6.64 µM
TGI (SN12C renal): 21.4 µM
GI50 (SNB-19 CNS): 4.94 µM
TGI (SNB-19 CNS): 18 µM
GI50 (SNB-75 CNS): 10.2 µM
TGI (SNB-75 CNS): 24.3 µM
GI50 (SR leukemia): 2.66 µM
TGI (SR leukemia): 7.75 µM
GI50 (SW-620 colon): 3.93 µM
TGI (SW-620 colon): 14.1 µM
GI50 (T-47D breast): 4.19 µM
TGI (T-47D breast): 21.9 µM
GI50 (TK-10 renal): 16.9 µM
TGI (TK-10 renal): 37 µM
GI50 (U251 CNS): 2.02 µM
TGI (U251 CNS): 3.9 µM
GI50 (UACC-257 melanoma): 1.97 µM
TGI (UACC-257 melanoma): 3.74 µM
GI50 (UACC-62 melanoma): 13.5 µM
TGI (UACC-62 melanoma): 31.6 µM
GI50 (UO-31 renal): 45.6 µM
TGI (UO-31 renal): > 100 µM
